Data: the NIST ThermoML archive (doi:10.1016/j.fluid.2014.10.016)
Numbers after ± are expanded uncertainties.

How the values were obtained:
[1] = excess molar enthalpy (molar enthalpy of mixing); xn = mol fraction of the nth substance listed; settings: 101 kPa, Liquid, Flow calorimetry
[2] = 313.15 K; Liquid; Closed cell (Static) method

CCCCCCC [heptane] + CCCC(C)O
[1], x2 = 0
Settings	excess molar enthalpy [kJ/mol]
298.15 K	0 ± 0.001
313.15 K	0 ± 0.001

CCCCCCC [heptane]
Settings	vapor or sublimation pressure [kPa]
[2]	12.31 ± 0.03

CCCC(C)O (configuration not stated) [pentan-2-ol] + CCCCCCC
excess molar enthalpy [kJ/mol], [1]
Settings	298.15 K	313.15 K
x1 = 0.0504	–	0.612 ± 0.0081
x1 = 0.0505	0.489 ± 0.0066	–
x1 = 0.0996	–	0.825 ± 0.011
x1 = 0.0997	0.63 ± 0.0082	–
x1 = 0.1475	–	0.933 ± 0.012
x1 = 0.1477	0.725 ± 0.0093	–
x1 = 0.1967	–	1.01 ± 0.013
x1 = 0.1969	0.795 ± 0.01	–
x1 = 0.2469	–	1.07 ± 0.014
x1 = 0.2472	0.849 ± 0.011	–
x1 = 0.2956	–	1.11 ± 0.014
x1 = 0.2962	0.882 ± 0.011	–
x1 = 0.3455	–	1.13 ± 0.014
x1 = 0.346	0.917 ± 0.012	–
x1 = 0.3962	–	1.14 ± 0.014
x1 = 0.3967	0.939 ± 0.012	–
x1 = 0.4454	–	1.14 ± 0.014
x1 = 0.4459	0.95 ± 0.012	–
x1 = 0.4953	–	1.13 ± 0.014
x1 = 0.4958	0.946 ± 0.012	–
x1 = 0.5458	–	1.1 ± 0.014
x1 = 0.5463	0.925 ± 0.012	–
x1 = 0.5968	–	1.05 ± 0.013
x1 = 0.5972	0.889 ± 0.011	–
x1 = 0.6462	–	0.993 ± 0.013
x1 = 0.6466	0.835 ± 0.011	–
x1 = 0.6959	–	0.895 ± 0.011
x1 = 0.6963	0.759 ± 0.0097	–
x1 = 0.7477	–	0.794 ± 0.01
x1 = 0.748	0.665 ± 0.0086	–
x1 = 0.7979	–	0.673 ± 0.0087
x1 = 0.7981	0.554 ± 0.0072	–
x1 = 0.8481	–	0.53 ± 0.0069
x1 = 0.8483	0.431 ± 0.0057	–
x1 = 0.8984	–	0.368 ± 0.005
x1 = 0.8985	0.295 ± 0.0041	–
x1 = 0.9485	–	0.193 ± 0.0029
x1 = 0.9486	0.15 ± 0.0024	–
x1 = 1	0 ± 0.001	0 ± 0.001

CCCC(C)O (configuration not stated) [pentan-2-ol] + CC(C)CC(C)(C)C
excess molar enthalpy [kJ/mol], [1]
Settings	298.15 K	313.15 K
x1 = 0.0507	0.476 ± 0.0064	0.61 ± 0.0081
x1 = 0.0997	0.644 ± 0.0083	–
x1 = 0.0998	–	0.822 ± 0.011
x1 = 0.1498	0.726 ± 0.0093	–
x1 = 0.1499	–	0.938 ± 0.012
x1 = 0.2009	0.795 ± 0.01	1.02 ± 0.013
x1 = 0.2499	–	1.08 ± 0.014
x1 = 0.25	0.847 ± 0.011	–
x1 = 0.3022	0.892 ± 0.011	–
x1 = 0.3023	–	1.12 ± 0.014
x1 = 0.3502	–	1.13 ± 0.014
x1 = 0.3503	0.922 ± 0.012	–
x1 = 0.401	–	1.14 ± 0.014
x1 = 0.4011	0.951 ± 0.012	–
x1 = 0.452	–	1.14 ± 0.014
x1 = 0.4521	0.959 ± 0.012	–
x1 = 0.501	–	1.12 ± 0.014
x1 = 0.5011	0.956 ± 0.012	–
x1 = 0.552	–	1.09 ± 0.014
x1 = 0.5521	0.921 ± 0.012	–
x1 = 0.601	0.879 ± 0.011	1.04 ± 0.013
x1 = 0.6516	–	0.964 ± 0.012
x1 = 0.6517	0.819 ± 0.01	–
x1 = 0.7018	–	0.883 ± 0.011
x1 = 0.7019	0.741 ± 0.0095	–
x1 = 0.7516	–	0.775 ± 0.0099
x1 = 0.7517	0.647 ± 0.0084	–
x1 = 0.8008	–	0.66 ± 0.0085
x1 = 0.8009	0.537 ± 0.007	–
x1 = 0.851	0.417 ± 0.0056	0.512 ± 0.0067
x1 = 0.9002	0.283 ± 0.004	0.358 ± 0.0049
x1 = 0.95	0.141 ± 0.0023	0.185 ± 0.0028
x1 = 1	0 ± 0.001	0 ± 0.001

CC(C)CC(C)(C)C [2,2,4-trimethylpentane]
Settings	vapor or sublimation pressure [kPa]
[2]	12.97 ± 0.031

CC(C)CC(C)(C)C [2,2,4-trimethylpentane] + CCCC(C)O
[1], x2 = 0
Settings	excess molar enthalpy [kJ/mol]
298.15 K	0 ± 0.001
313.15 K	0 ± 0.001

CCCC(C)O (configuration not stated) [pentan-2-ol]
Settings	vapor or sublimation pressure [kPa]
[2]	2.295 ± 0.015
